Results published in patent US20210214341A1, “SUBSTITUTED PYRIDINYL AZETIDINONE DERIVATIVES FOR USE IN TREATING CANCER AND OTHER DISEASES” (The Board of Regents of the University of Texas System, priority 2018, published 2021).
Read-outs that look alike come from different tables or passages of the source.

Assays:
[1] = tested on: pancreatic cancer cells PANC-1 (ATCC CRL-1469); assay: SRB (Sulforhodamine B) assay in PANC-1 cells; type: cell-based; conditions: Homo sapiens, read-out: IC50 (PANC-1)
Experimental: (§1) FIGS. 1A-1B show the IC50 curves of the twelve investigational β-lactams in pancreatic cancer cells PANC-1 (ATCC CRL-1469) and normal pancreatic ductal epithelial cells (ATCC CRL-4038). The GraphPad Prism software was used to process the results. The IC50 values were determined by SRB (Sulforhodamine B) assay following standard procedure. PANC-1 cells were plated in 96 well plates and treated with 1, 10, 100, 1000 and 10,000 nM of each of the drugs in triplicate for 72 hrs. Cells were fixed, washed and stained with SRB dye, the stained cells were washed, and the dye solubilized. It was read using a plate reader at 565 nm. The IC50 values were calculated assuming that the 10 μM sample has reached saturation. Following similar way, IC50 values were determined for normal pancreatic ductal epithelial cells.
(§2) As mentioned earlier, PANC-1 is referred to generically as the “gold standard of pancreatic cancers” representing as it does almost total resistance to GEM, the first line treatment currently used in clinical situations. Pancreatic cancer cells PANC-1 (ATCC CRL-1469) and normal pancreatic ductal epithelial cells (ATCC CRL-4038) were used in this study. The GraphPad Prism software was used to process the results. […] Cells were fixed, washed and stained with SRB dye, the stained cells were washed, and the dye solubilized. It was read using a plate reader at 565 nm. The IC50 values were calculated assuming that the 10 μM sample has reached saturation. Following similar way, IC50 values were determined for normal pancreatic ductal epithelial cells.

[2] = tested on: PANC-1 tumorspheres; assay: 3D-tumorsphere formation assay; type: cell-based, human; conditions: for IC50: Homo sapiens, tumorspheres larger than 100 micrometers counted after 144 hrs
Experimental: Number of tumorspheres formed can be used to distinguish the efficacy of different anticancer drugs in a more physically acceptable method than 2D culture. Based on selectivity and toxicity towards PANC-1 cells in comparison to normal pancreatic ductal epithelial cells (Table D), six compounds (A, B, C, E, F, and G) were chosen for the 3D-tumorsphere formation assay. The assay was carried out by following the protocol developed by Johnson et al., (2013). PANC-1 cells (5000) were plated as single cells in Corning ultra-low attachment 24 well plates in 0.5 ml DMEM+10% FBS. The cells were grown in a humidified atmosphere of 5% CO2 for 168 hrs. 0.1 ml Media was added on 72nd and 144 hrs. The β-lactams were dissolved in DMSO and maintained at −20° C. On the day of assay, on the addition of media, the drugs were freshly diluted in media. The final concentrations of drugs were 0, 1 nM, 10 nM, 100 nM, 1 uM, 10 μM. After 144 hours the total number tumorspheres that were larger than 100 micrometers were counted in a field of 1 mm×1 mm at 10× magnification in a bright field microscope. The data was plotted and the IC50 value was calculated.
3D-tumorsphere formation assay is considered to be a fast and economical intermediary step between in vitro and in vivo biological evaluations. A tumorsphere is a solid, spherical formation developed from the proliferation of a single cancer stem/progenitor cell in 3D culture. These cells are easily distinguishable from single or aggregated as they appear to become fused together and individual cells cannot be appearing to become fused together and individual cells cannot be identified. The size can vary from less than 50 micrometers to 250 micrometers. The number of tumorspheres formed can be used to characterize the cancer stem cell population within different in vitro cultured cancer cell lines. The number of tumorspheres formed can also be used to distinguish the efficacy of different anticancer drugs in a more physically acceptable method than 2D culture. Based on selectivity and toxicity towards PANC-1 cells in comparison to normal pancreatic ductal epithelial cells (Table D), six compounds (A, B, C, E, F, and G) were chosen for the 3D-tumorsphere formation assay. The assay was carried out by following the protocol developed by Johnson et al., (2013). […] The below steps were followed to accomplish the assay. • 5000 PANC-1 cells were plated as single cells in Corning ultra-low attachment 24 well plates in 0.5 ml DMEM+10% FBS. • Cells were grown in a humidified atmosphere of 5% CO2 for 168 hrs. 0.1 ml Media was added on 72nd and 144 hrs. • Drugs were dissolved in DMSO and maintained at −20° C. On the day of assay, on the addition of media, the drugs were freshly diluted in media. • The final concentrations of drugs were 0, 1 nM, 10 nM, 100 nM, 1 μM, 10 μM. • After 144 hrs the total number tunorspheres that were larger than 100 micrometers were counted in a field of 1 mm×1 mm at 10× magnification in a bright field microscope. The data was plotted and the IC50 value was calculated.

[3] = tested on: normal pancreatic ductal epithelial cells (ATCC CRL-4038); assay: SRB (Sulforhodamine B) assay in normal pancreatic ductal epithelial cells; type: cell-based; conditions: Epithelial cell, read-out: IC50 (NPC)
Experimental: as §1, §2

[4] = tested on: pancreatic cancer cells PANC-1 (ATCC CRL-1469); conditions: cited from earlier work
[5] = tested on: HS 766T; assay: Cytotoxicity IC50 in HS 766T cells; type: cell-based; conditions: Homo sapiens, Hs766T; HS 766T cell line; read-out: IC50 (mean ± standard error)
Text: (§3) B. Cytotoxicity Studies: Determination of IC50 Values (Single Run) in Capan-2, HPAC. HPAF-II, and HS766T Cell Lines
(§4) Capan-2, HPAC. HPAF-H, and HS766T. The compounds A, D, E, G, and H were chosen randomly, out of twelve β-laclam molecules, to carry out this evaluation.

[6] = tested on: HPAF-II; assay: Cytotoxicity IC50 in HPAF-II cells; type: cell-based; conditions: Homo sapiens; HPAF-II cell line; read-out: IC50 (mean ± standard error)
Text: as §3, §4

[7] = tested on: PANC-1 cells; assay: Flow cytometric cell cycle analysis; type: cell-based, human; conditions: tested for 24, 48 and 72 hrs
Experimental: The noise was cleared. […] After 72 hrs all the cells (including floaters) were collected, the adhered cells were trypsinized and collected as well. The cells were then centrifuged in a 50 mL centrifuge tube. The pellet was washed with PBS and reconstituted in 500 μL PBS. The cells were then fixed in ice cold ethanol by adding the ethanol dropwise while gently vortexing the cells. Stored at 4° C. for overnight. The cells were then centrifuged, and the pellet reconstituted in Guava cell cycle reagent and analyzed in a Guava flow cytometer. A similar experiment was conducted with normal pancreatic ductal epithelial cells (NPC) and the drug treatment was done according to the IC50 values observed in the 2D assay conducted on them (Table E). Please note that 2N represents G0/G1 and 4N for G2 phases.
After 72 hrs all the cells (including floaters) were collected, the adhered cells were trypsinized and collected as well. The cells were then centrifuged in a 50 mL centrifuge tube. The pellet was washed with PBS and reconstituted in 500 μL PBS. The cells were then fixed in ice cold ethanol by adding the ethanol dropwise while gently vortexing the cells. […] The cells were then centrifuged, and the pellet reconstituted in Guava cell cycle reagent and analyzed in a Guava flowcytometer. […] First set of data with PANC-1 cells were analyzed by using FlowJo software, the noise was cleared (FIG. 3). […]

[8] = PANC-1, 2D-culture, SRB, 72 hrs, average of 3 runs
[9] = 2D-culture, SRB, average of 3 runs

| SMILES | IC50 [1, 8] | IC50 [2] | melting point | IC50 [3, 9] | other results |
| --- | --- | --- | --- | --- | --- |
| O=C1[C@@H](OS(=O)(=O)C2CC2)[C@H](c2ccc(F)cn2)N1c1cc2c3ccccc3ccc2c2ccccc12 (racemic) [F, (±)-Trans-N-(chrysen-6-yl)-2-(5-fluoropyridin-2-yl)-4-oxoazetidin-3-yl cyclopropanesulfonate] | 27.2 nM | 19.1 nM | 180 to 181 °C | 356 nM | activity in 3D-tumorsphere formation assay compared with 2D-culture [2]: higher activity in 3D-tumorphere formation assay than 2D-culture |
| CS(=O)(=O)O[C@H]1C(=O)N(c2cc3c4ccccc4ccc3c3ccccc23)C1c1ccccn1 (stereo partly drawn) [TX-262] | – | – | – | – | IC50 ([4]; TX-262, from Banik et al., WO 2012/103456, read-out: IC50 (PANC-1)): 430 nM; IC50 ([4]; TX-262, read-out: PANC-1 cell lines IC50): 430 nM |
| O=C=NS(=O)(=O)O[C@@H]1C(=O)N(c2cc3c4ccccc4ccc3c3ccccc23)[C@H]1c1ccc(F)cn1 (racemic) [K, (±)-Trans-N-(chrysen-6-yl)-2-(5-fluoropyridin-2-yl)-4-oxoazetidin-3-yl sulfurisocyanatidate] | – | – | – | – | IC50 ([1]; PANC-1, 72 h): 29.6 nM; IC50 [3]: 416 nM |
| Cc1ccc(S(=O)(=O)O[C@@H]2C(=O)N(c3cc4c5ccccc5ccc4c4ccccc34)[C@H]2c2ccc(F)cn2)cc1 (racemic) [(±)-Trans-N-(chrysen-6-yl)-2-(5-fluoropyridin-2-yl)-4-oxoazetidin-3-yl 4-methylbenzenesulfonate] | – | – | 220 to 221 °C | – | – |
| C[Si](C)(C)CCS(=O)(=O)O[C@@H]1C(=O)N(c2cc3c4ccccc4ccc3c3ccccc23)[C@H]1c1ccc(F)cn1 (racemic) [H, (±)-Trans-N-(chrysen-6-yl)-2-(5-fluoropyridin-2-yl)-4-oxoazetidin-3-yl 2-(trimethylsilyl)ethane-1-sulfonate] | 30.4 nM | – | 210 to 211 °C | 48.5 nM | IC50 [5]: 790 ± 120 nM; IC50 [6]: 660 ± 120 nM |
| CC(C)N(C)S(=O)(=O)O[C@@H]1C(=O)N(c2cc3c4ccccc4ccc3c3ccccc23)[C@H]1c1ccc(F)cn1 (racemic) [E, (±)-Trans-N-(chrysen-6-yl)-2-(5-fluoropyridin-2-yl)-4-oxoazetidin-3-yl isopropyl(methyl)sulfamate] | 8.65 nM | 6.25 nM | 166 to 167 °C | 424 nM | IC50 [5]: 40 nM; IC50 [6]: 500 ± 160 nM; activity in 3D-tumorsphere formation assay compared with 2D-culture [2]: higher activity in 3D-tumorphere formation assay than 2D-culture |
| O=C1[C@@H](OS(=O)(=O)N2CCCC2)[C@H](c2ccc(F)cn2)N1c1cc2c3ccccc3ccc2c2ccccc12 (racemic) [Compound I, (±)-Trans-N-(chrysen-6-yl)-2-(5-fluoropyridin-2-yl)-4-oxoazetidin-3-yl pyrrolidine-1-sulfonate] | 58.6 nM | – | 205 to 206 °C | 201 nM | – |
| CN(C)S(=O)(=O)O[C@@H]1C(=O)N(c2cc3c4ccccc4ccc3c3ccccc23)[C@H]1c1ccc(F)cn1 (racemic) [J, (±)-Trans-N-(chrysen-6-yl)-2-(5-fluoropyridin-2-yl)-4-oxoazetidin-3-yl dimethylsulfamate] | 212 nM | – | 196 to 198 °C | 1050 nM | – |
| CN1CCN(S(=O)(=O)O[C@@H]2C(=O)N(c3cc4c5ccccc5ccc4c4ccccc34)[C@H]2c2ccc(F)cn2)CC1 (racemic) [G, (±)-Trans-N-(chrysen-6-yl)-2-(5-fluoropyridin-2-yl)-4-oxoazetidin-3-yl 4-methylpiperazine-1-sulfonate] | 2.69 nM | – | 146 to 147 °C | 8.43 nM | IC50 [6]: 1180 ± 260 nM |
| N#CC1CN(S(=O)(=O)O[C@@H]2C(=O)N(c3cc4c5ccccc5ccc4c4ccccc34)[C@H]2c2ccc(F)cn2)C1 (racemic) [Compound C, (±)-Trans-N-(chrysen-6-yl)-2-(5-fluoropyridin-2-yl)-4-oxoazetidin-3-yl 3-cyanoazetidine-1-sulfonate] | 3.52 nM | 2.33 nM | 212 to 213 °C | 42.5 nM | activity in 3D-tumorsphere formation assay compared with 2D-culture [2]: higher activity in 3D-tumorphere formation assay than 2D-culture |
| CS(=O)(=O)O[C@@H]1C(=O)N(c2cc3c4ccccc4ccc3c3ccccc23)[C@H]1c1ccc(F)cn1 (racemic) [(±)-Trans-N-(chrysen-6-yl)-2-(5-fluoropyridin-2-yl)-4-oxoazetidin-3-yl methanesulfonate] | – | – | 253 to 254 °C | – | – |
| Cc1ccc(S(=O)(=O)O[C@@H]2C(=O)N(c3cc4c5ccccc5ccc4c4ccccc34)[C@H]2c2ccc(F)cn2)cc1 (racemic) [L, (±)-Trans-N-(chrysen-6-yl)-2-(5-fluoropyridin-2-yl)-4-oxoazetidin-3-yl 4-methylbenzenesulfonate] | 3.38 nM | 4.57 nM | – | 13.3 nM | time of maximum cell cycle blockage [7]: 72 h |
